Measured values reported in patent US11254640B2, “N-substituted indoles and other heterocycles for treating brain disorders” (The Regents of the University of California, priority 2019, dated 2022).
Entries after “also recorded” stand apart in the source; their conditions may differ.

Columns and labels:
5HT2A sensor [1] = experiment: 5HT2A sensor assay, antagonist mode (sLight1.3s HEK293T stable line); assay type: cell-based; details: 10 μM of compound (FIG. 13)
Method: In some embodiments, the 5HT2A sensor assay is in an antagonist mode.
(§1) 5HT2A Sensor Assays. HEK293T (ATCC) 5HT2A sensor stable line (sLight1.3s) was generated via lentiviral transduction of HIV-EF1α-sLight1.3 and propagated from a single colony. Lentivirus was produced using 2nd generation lentiviral plasmids pHIV-EF1α-sLight1.3, pHCMV-G, and pCMV-deltaR8.2.
(§2) For the screening of the 41 compounds, sLight1.3s cells were plated in 96-well plates at a density of 40000 24-hours prior to imaging. On the day of imaging, compounds solubilized in DMSO were diluted from the 100 mM stock solution to working concentrations of 1 mM, 100 μM and 1 μM with a DMSO concentration of 1%. Immediately prior to imaging, cells growing in DMEM (Gibco) were washed 2× with HBSS (Gibco) and in agonist mode 180 μL of HBSS or in antagonist mode 160 μL of HBSS was added to each well after the final wash. For agonist mode, images were taken before and after the addition of the 20 μL compound working solution into the wells containing 180 μL HBSS. This produced final compound concentrations of 100 μM, 10 μM and 100 nM with a DMSO concentration of 0.1%. For antagonist mode, images were taken before and after addition of 20 μL of 900 nM 5-HT and again after 20 μL of the compound working solutions to produce final concentrations of 100 nM for 5HT and 100 μM, 10 μM and 100 nM for the compounds with a DMSO concentration of 0.1%. Each compound was tested in triplicates (3 wells) for each concentration (100 μM, 10 μM and 100 nM). Additionally, within each plate, 100 nM 5HT and 0.1% DMSO controls were also imaged.
(§3) Imaging was performed using the Leica DMi8 inverted microscope with a 40× objective using the FITC preset with an excitation of 460 nm and emission of 512-542 nm. For each well, the cellular membrane where the 5HT2A sensor is targeted was autofocused using the adaptive focus controls and 5 images from different regions within the well were taken with each image processed from a 2×2 binning.
(§4) For data processing, the membranes from each image was segmented and analyzed using a custom algorithm written in MATLAB producing a single raw fluorescence intensity value. For each well the 5 raw fluorescence intensity values generated from the 5 images were averaged and the change in fluorescence intensity (dFF) was calculated as: dFF=(Fsat−Fapo)/Fapo
(§5) For both agonist and antagonist modes, the fluorescence intensity values before compound addition in HBSS only were used as the Fapo values while the fluorescence intensity values after compound addition were used as the Fsat values.
(§6) For agonist mode, data are as percent activation relative to 5HT, where 0 is the average of the DMSO wells and 100 is the average of the 100 uM 5HT wells. For antagonist mode, the inactivation score was calculated as: Inactivation score=(dFFF(Compound+5HT)−dFF(5HT))/dFF(5HT)

5HT2A sensor [2] = experiment: 5HT2A sensor assay, agonist mode (sLight1.3s HEK293T stable line); assay type: cell-based; details: for activation of 5HT2A sensor assay in agonist mode at 10 μM: 10 μM of compound (FIG. 11)
Method: In some embodiments, hallucinogenic potential of a compound of the present invention is determined in vitro. In some embodiments, hallucinogenic potential of a compound of the present invention is determined using a 5HT2A sensor assay. In some embodiments, the 5HT2A sensor assay is in an agonist mode or an antagonist mode. In some embodiments, the 5HT2A sensor assay is in an agonist mode.
as §1, §2, §3, §4, §5, §6

cortical neurons = experiment: Dendritogenesis assay, Sholl analysis; assay type: cell-based, rat; details: 10 μM; for Emax at 10 µM: Rattus norvegicus, Cortical neurone, Nmax with vehicle (DMSO) = 0% and ketamine = 100%, read-out: % efficacy in sholls; for dendritic arbor complexity / neuronal growth (Nmax of Sholl plots): cortical neurons
Excerpt: Dendritogenesis Assays. Phenotypic screening has historically proven more successful than target-based approaches for identifying drugs with novel mechanisms of action. Having established a simple and robust method for accessing isoDMT analogs, tested next was their ability to increase dendritic arbor complexity in cultures of cortical neurons using a phenotypic assay. Following treatment, neurons were fixed and visualized using an antibody against MAP2—a cytoskeletal protein localized to the somatodendritic compartment of neurons. Sholl analysis was then performed, and the maximum number of crossings (Nmax) was used as a quantitative metric of dendritic arbor complexity. For statistical comparisons between specific compounds, the raw Nmax values were compared. Percent efficacies were determined by setting the Nmax values for the vehicle (DMSO) and positive (ketamine) controls equal to 0% and 100%, respectively.
Animals. For the dendritogenesis experiments, timed pregnant Sprague Dawley rats were obtained from Charles River Laboratories (Wilmington, Mass.). For the head-twitch response assay, male and female C57BL/6J mice were obtained from Jackson Laboratory (Sacramento, Calif.). Mice were housed in a temperature and humidity-controlled room maintained on a 12-h light/dark cycle in groups of 4-5 (same sex). Animals weighed between 17 and 30 g at the time of the experiments. All experimental procedures involving rodents were approved by the UC Davis Institutional Animal Care and Use Committee (IACUC) and adhered to principles described in the National Institutes of Health Guide for the Care and Use of Laboratory Animals. The University of California, Davis and the University of California, San Francisco are accredited by the Association for Assessment and Accreditation of Laboratory Animal Care International (AAALAC).
Dendritogenesis—Sholl Analysis. Dendritogenesis experiments were performed following a previously published method with slight modifications. Neurons were plated in 96-well format (200 μL of media per well) at a density of approximately 15,000 cells/well in Neurobasal (Life Technologies) containing 1% penicillin-streptomycin, 10% heat-inactivated fetal bovine serum, and 0.5 mM glutamine. After 24 h, the medium was replaced with Neurobasal containing 1× B27 supplement (Life Technologies), 1% penicillin-streptomycin, 0.5 mM glutamine, and 12.5 μM glutamate. After 3 days in vitro (DIV3), the cells were treated with compounds. All compounds tested in the dendritogenesis assays were treated at 10 μM unless noted otherwise. Stock solutions of the compounds in DMSO were first diluted 100-fold in Neurobasal before an additional 10-fold dilution into each well (total dilution=1:1000; 0.1% DMSO concentration). Treatments were randomized. After 1 h, the media was removed and replaced with new Neurobasal media containing 1× B27 supplement, 1% penicillin-streptomycin, 0.5 mM glutamine, and 12.5 μM glutamate. The cells were allowed to grow for an additional 71 h. At that time, neurons were fixed by removing 80% of the media and replacing it with a volume of 4% aqueous paraformaldehyde (Alfa Aesar) equal to 50% of the working volume of the well. Then, the cells were incubated at room temperature for 20 min before the fixative was aspirated and each well washed twice with DPBS. Cells were permeabilized using 0.2% Triton X-100 (ThermoFisher) in DPBS for 20 minutes at room temperature without shaking. Plates were blocked with antibody diluting buffer (ADB) containing 2% bovine serum albumin (BSA) in DPBS for 1 h at room temperature. Then, plates were incubated overnight at 4° C. with gentle shaking in ADB containing a chicken anti-MAP2 antibody (1:10,000; EnCor, CPCA-MAP2). The next day, plates were washed three times with DPBS and once with 2% ADB in DPBS. […]

CCN(CC)C(=O)[C@@H]1C=C2c3cccc4[nH]c(Br)c(c34)C[C@H]2N(C)C1 [BOL148, reference compound]
competition with 5HT binding to 5HT2A, antagonist mode sensor assay at 10 μM (5HT2A sensor [1]): compete with 5HT binding to 5HT2A
activation of 5HT2A sensor assay in agonist mode at 10 μM (5HT2A sensor [2]): do not activate the 5HT2A sensor assay in agonist mode

COc1cc(CC(C)N)c(OC)cc1I (stereo not shown) [DOI, reference compound]
activation of 5HT2A sensor assay in agonist mode at 10 μM (5HT2A sensor [2]): activate the 5HT2A sensor assay in agonist mode

CN(C)CCc1c[nH]c2ccccc12 [Example 1, N,N-dimethyltryptamine, reference compound]
Emax at 10 µM (cortical neurons): 79%
activation of 5HT2A sensor assay in agonist mode at 10 μM (5HT2A sensor [2]): activate the 5HT2A sensor assay in agonist mode

CCN(CC)CCc1c[nH]c2cc(F)ccc12 [Example 6-F-DET, reference compound]
competition with 5HT binding to 5HT2A, antagonist mode sensor assay at 10 μM (5HT2A sensor [1]): compete with 5HT binding to 5HT2A
activation of 5HT2A sensor assay in agonist mode at 10 μM (5HT2A sensor [2]): do not activate the 5HT2A sensor assay in agonist mode

CN(C)CCn1ccc2c(OCc3ccccc3)cccc21 [Example 8, 2-(4-(benzyloxy)-1H-indol-1-yl)-N,N-dimethylethan-1-amine]
Emax at 10 µM (cortical neurons): 38%

CN(C)CCn1ccc2cc(OCc3ccccc3)ccc21 [Example 9, 2-(5-(benzyloxy)-1H-indol-1-yl)-N,N-dimethylethan-1-amine]
Emax at 10 µM (cortical neurons): 78%

CN(C)CCn1ccc2ccc(OCc3ccccc3)cc21 [Example 10, 2-(6-(benzyloxy)-1H-indol-1-yl)-N,N-dimethylethan-1-amine]
Emax at 10 µM (cortical neurons): 65%

CN(C)CCn1ccc2cccc(OCc3ccccc3)c21 [Example 11, 2-(7-(benzyloxy)-1H-indol-1-yl)-N,N-dimethylethan-1-amine]
Emax at 10 µM (cortical neurons): 131%

CN(C)CCn1ccc2c(F)cccc21 [Example 12, 2-(4-fluoro-1H-indol-1-yl)-N,N-dimethylethan-1-amine]
Emax at 10 µM (cortical neurons): 37%

CN(C)CCn1ccc2cc(F)ccc21 [Example 13, 2-(5-fluoro-1H-indol-1-yl)-N,N-dimethylethan-1-amine]
Emax at 10 µM (cortical neurons): 75%
dendritic arbor complexity / neuronal growth (Nmax of Sholl plots) (cortical neurons): performed identically to 28 and 29

CN(C)CCn1ccc2cccc(F)c21 [Example 15, 2-(7-fluoro-1H-indol-1-yl)-N,N-dimethylethan-1-amine]
Emax at 10 µM (cortical neurons): 85%

CN(C)CCn1ccc2cc(F)c(F)cc21 [Example 17, 2-(5,6-difluoro-1H-indol-1-yl)-N,N-dimethylethan-1-amine]
Emax at 10 µM (cortical neurons): 84%

CN(C)CCn1ccc2c(F)cc(F)cc21 [Example 18, 2-(4,6-difluoro-1H-indol-1-yl)-N,N-dimethylethan-1-amine]
Emax at 10 µM (cortical neurons): 62%

CN(C)CCn1cc(C(=O)C(=O)N(C)C)c2ccccc21 [Example 21, 2-(1-(2-(dimethylamino)ethyl)-1H-indol-3-yl)-N,N-dimethyl-2-oxoacetamide]
Emax at 10 µM (cortical neurons): 72%
dendritic arbor complexity / neuronal growth (Nmax of Sholl plots) (cortical neurons): well tolerated

CN(C)CCn1cccc1 [Example 23, N,N-dimethyl-2-(1H-pyrrol-1-yl)ethan-1-amine]
Emax at 10 µM (cortical neurons): 64%
dendritic arbor complexity / neuronal growth (Nmax of Sholl plots) (cortical neurons): minimal effect on the ability of these molecules to promote neuronal growth

CC(C)CCn1ccc2ccccc21 [Example 25, 1-isopentyl-1H-indole]
Emax at 10 µM (cortical neurons): 17%
dendritic arbor complexity / neuronal growth (Nmax of Sholl plots) (cortical neurons): did not promote dendritogenesis

CN(C)CCc1cn(C)c2ccccc12 [Example 27, N,N-dimethyl-2-(1-methyl-1H-indol-3-yl)ethan-1-amine, reference compound]
Emax at 10 µM (cortical neurons): 73%
dendritic arbor complexity / neuronal growth (Nmax of Sholl plots) (cortical neurons): increase dendritic arbor complexity to a comparable extent as DMT (1); also recorded: increased dendritic arbor complexity to a comparable extent as 1

CN(C)CCc1c[nH]c2cc(F)ccc12 [Example 29, 2-(6-fluoro-1H-indol-3-yl)-N,N-dimethylethan-1-amine, reference compound]
Emax at 10 µM (cortical neurons): 81%

COc1ccc2c(ccn2C[C@@H](C)N(C)C)c1 [Example 32, (R)-1-(5-methoxy-1H-indol-1-yl)-N,N-dimethylpropan-2-amine]
Emax at 10 µM (cortical neurons): 88%

C[C@H](Cn1ccc2cc(F)ccc21)N(C)C [Example 33, (R)-1-(5-fluoro-1H-indol-1-yl)-N,N-dimethylpropan-2-amine]
Emax at 10 µM (cortical neurons): 65%

O=C(c1ccc(F)cc1)C1CCN(CCn2c(=O)[nH]c3ccccc3c2=O)CC1 [Ketanserin, reference compound]
competition with 5HT binding to 5HT2A, antagonist mode sensor assay at 10 μM (5HT2A sensor [1]): compete with 5HT binding to 5HT2A
activation of 5HT2A sensor assay in agonist mode at 10 μM (5HT2A sensor [2]): do not activate the 5HT2A sensor assay in agonist mode

CNC(C)Cc1ccc2c(c1)OCO2 [L-MDMA, reference compound]
activation of 5HT2A sensor assay in agonist mode at 10 μM (5HT2A sensor [2]): do not activate the 5HT2A sensor assay in agonist mode

CCN(CC)C(=O)[C@@H]1C=C2c3cccc4[nH]cc(c34)C[C@H]2N(C)C1 [LSD, lysergic acid diethylamide, reference compound]
activation of 5HT2A sensor assay in agonist mode at 10 μM (5HT2A sensor [2]): activate the 5HT2A sensor assay in agonist mode
activation of 5HT2A sensor assay in agonist mode (dose response) (5HT2A sensor [2]; dose response (FIG. 10)): activate

CN[C@H](C)Cc1ccc2c(c1)OCO2 [R-MDMA, reference compound]
activation of 5HT2A sensor assay in agonist mode at 10 μM (5HT2A sensor [2]): do not activate the 5HT2A sensor assay in agonist mode
